Source: ChEMBL document CHEMBL1201862, “PubChem BioAssay data set” (2004)
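1) Cells in 96-well plates. 2) Compound, 48 h, 5 concentrations. 3) Linear interpolation between surrounding doses. 4) Unreached endpoint = highest concentration. Abbreviation: GI50, concentration required for 50% inhibition of growth.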 The source made the active and inactive calls. Rule as the data show it: active = GI50 up to about 1.1 µM and inactive = higher.

Legend:
Assay in all cases: DTP human tumour cell line panel, 48 h
SF-295 = system: SF-295
ACHN = system: ACHN
786-0 = system: 786-0
SK-MEL-28 = system: SK-MEL-28
U-251 = system: U-251
UACC-257 = system: UACC-257
OVCAR-3 = system: OVCAR-3
HCT-15 = system: HCT-15
PC-3 = system: PC-3
NCI-H226 = system: NCI-H226
Malme-3M = system: Malme-3M
COLO 205 = system: COLO 205
A498 = system: A498
RPMI-8226 = system: RPMI-8226
MCF7 = system: MCF7
LOX IMVI = system: LOX IMVI
KM12 = system: KM12
SR = system: SR
CAKI-1 = system: CAKI-1
HT-29 = system: HT-29
OVCAR-5 = system: OVCAR-5
A549 = system: A549
MDA-MB-231 = system: MDA-MB-231
MDA-MB-435 = system: MDA-MB-435
CCRF-CEM = system: CCRF-CEM
SF-268 = system: SF-268
Hs-578T = system: Hs-578T
EKVX = system: EKVX
OVCAR-8 = system: OVCAR-8
HCC 2998 = system: HCC 2998
HCT-116 = system: HCT-116
UO-31 = system: UO-31
SNB-19 = system: SNB-19
SNB-75 = system: SNB-75
K562 = system: K562
MDA-N = system: MDA-N
NCI-H23 = system: NCI-H23
IGROV-1 = system: IGROV-1
NCI-H460 = system: NCI-H460
SN12C = system: SN12C
BT-549 = system: BT-549
HL-60 = system: HL-60
HOP-62 = system: HOP-62
DU-145 = system: DU-145
RXF 393 = system: RXF 393
NCI-H522 = system: NCI-H522
TK-10 = system: TK-10
OVCAR-4 = system: OVCAR-4
SW-620 = system: SW-620
SF-539 = system: SF-539
NCI/ADR-RES = system: NCI/ADR-RES
HOP-92 = system: HOP-92
MOLT-4 = system: MOLT-4
SK-MEL-5 = system: SK-MEL-5
M14 = system: M14
SK-MEL-2 = system: SK-MEL-2
T47D = system: T47D
SK-OV-3 = system: SK-OV-3
UACC-62 = system: UACC-62

Measured: GI50

Oc1nc2ccccc2c(O)c1Cc1ccccc1
inactive: SF-295 > 100 µM | ACHN > 100 µM | 786-0 > 100 µM | SK-MEL-28 > 100 µM | U-251 > 100 µM | UACC-257 > 100 µM | OVCAR-3 > 100 µM | PC-3 > 100 µM | NCI-H226 > 100 µM | Malme-3M > 100 µM | COLO 205 > 100 µM | A498 > 100 µM | RPMI-8226 > 100 µM | MCF7 > 100 µM | LOX IMVI > 100 µM | KM12 > 100 µM | SR > 100 µM | CAKI-1 > 100 µM | HT-29 > 100 µM | OVCAR-5 > 100 µM | A549 > 100 µM | MDA-MB-231 > 100 µM | MDA-MB-435 > 100 µM | CCRF-CEM > 100 µM | SF-268 > 100 µM | Hs-578T > 100 µM | EKVX > 100 µM | OVCAR-8 > 100 µM | HCC 2998 > 100 µM | HCT-116 > 100 µM | UO-31 > 10 µM | SNB-19 > 100 µM | SNB-75 > 100 µM | K562 > 100 µM | MDA-N > 100 µM | NCI-H23 > 100 µM | IGROV-1 > 100 µM | NCI-H460 > 100 µM | SN12C > 100 µM | BT-549 > 100 µM | HL-60 > 100 µM | HOP-62 > 100 µM | DU-145 > 100 µM | RXF 393 > 100 µM | NCI-H522 > 100 µM | TK-10 > 100 µM | OVCAR-4 > 100 µM | SW-620 > 100 µM | SF-539 > 100 µM | NCI/ADR-RES > 100 µM | HOP-92 > 100 µM | MOLT-4 > 100 µM | SK-MEL-5 > 100 µM
> 100 µM: HCT-15

O=C1c2cc([N+](=O)[O-])cnc2S(=O)(=O)N1c1ccc(Oc2ccccc2)cc1
> 100 µM: HCT-15
inactive: SF-295 > 100 µM | ACHN > 100 µM | M14 > 100 µM | 786-0 > 100 µM | SK-MEL-28 > 100 µM | U-251 > 100 µM | OVCAR-3 > 100 µM | PC-3 > 100 µM | NCI-H226 > 100 µM | Malme-3M > 100 µM | COLO 205 > 100 µM | RPMI-8226 > 100 µM | MCF7 > 100 µM | LOX IMVI > 100 µM | KM12 > 100 µM | SR 57 µM | OVCAR-5 > 100 µM | A549 > 100 µM | MDA-MB-231 > 100 µM | MDA-MB-435 > 100 µM | SK-MEL-2 > 100 µM | CCRF-CEM 39 µM | Hs-578T > 100 µM | EKVX > 100 µM | OVCAR-8 > 100 µM | HCC 2998 > 100 µM | HCT-116 > 100 µM | UO-31 > 100 µM | SNB-19 > 100 µM | SNB-75 > 100 µM | K562 > 100 µM | NCI-H23 > 100 µM | IGROV-1 > 100 µM | NCI-H460 > 100 µM | T47D > 100 µM | SN12C > 100 µM | BT-549 > 100 µM | HL-60 > 100 µM | HOP-62 > 100 µM | DU-145 > 100 µM | RXF 393 34.2 µM | NCI-H522 > 100 µM | TK-10 > 100 µM | OVCAR-4 > 100 µM | SK-OV-3 > 100 µM | SW-620 > 100 µM | NCI/ADR-RES > 100 µM | HOP-92 > 100 µM | UACC-62 > 100 µM | MOLT-4 33 µM

COc1cc2c(cc1OCCN1CCN(CCOc3cc4c(cc3OC)C(=O)N3CCC[C@H]3C=N4)CC1)N=C[C@@H]1CCCN1C2=O
inactive: SF-295 8.83 µM | ACHN > 39.1 µM | M14 25.1 µM | 786-0 17.8 µM | SK-MEL-28 60 µM | U-251 24.8 µM | UACC-257 > 56.6 µM | OVCAR-3 25.9 µM | PC-3 25.9 µM | NCI-H226 19.4 µM | Malme-3M 9.14 µM | COLO 205 24 µM | A498 37.1 µM | RPMI-8226 1.56 µM | MCF7 18.2 µM | KM12 30.8 µM | CAKI-1 14 µM | HT-29 36 µM | OVCAR-5 26.2 µM | A549 > 88.9 µM | MDA-MB-231 17.6 µM | MDA-MB-435 20.8 µM | SK-MEL-2 26 µM | SF-268 13.1 µM | Hs-578T 41.6 µM | EKVX > 96.6 µM | OVCAR-8 35.3 µM | HCT-116 29.5 µM | UO-31 35.8 µM | SNB-19 35.5 µM | SNB-75 > 76.9 µM | K562 15 µM | NCI-H23 17.1 µM | IGROV-1 33.5 µM | NCI-H460 13.5 µM | T47D 25.4 µM | SN12C 9.46 µM | BT-549 21.5 µM | HL-60 4.3 µM | HOP-62 30.5 µM | DU-145 37.5 µM | RXF 393 26.1 µM | NCI-H522 12.1 µM | TK-10 23.8 µM | OVCAR-4 > 100 µM | SK-OV-3 > 100 µM | SW-620 19.2 µM | SF-539 10.2 µM | NCI/ADR-RES > 100 µM | UACC-62 14.3 µM | MOLT-4 2.06 µM | SK-MEL-5 17.8 µM
> 64.1 µM: HCT-15
active: SR 0.362 µM | HOP-92 0.906 µM

O=C(OCCN=c1c2ccccc2ccc2ccccc12)c1ccccc1
63.4 µM: HCT-15
inactive: SF-295 > 100 µM | ACHN 97.1 µM | M14 > 100 µM | 786-0 87.7 µM | SK-MEL-28 > 100 µM | U-251 56.4 µM | UACC-257 > 100 µM | OVCAR-3 > 100 µM | PC-3 67.3 µM | NCI-H226 > 100 µM | Malme-3M > 100 µM | COLO 205 92.5 µM | RPMI-8226 > 100 µM | MCF7 > 100 µM | LOX IMVI 72.1 µM | KM12 86.5 µM | SR > 100 µM | CAKI-1 83.4 µM | HT-29 64 µM | OVCAR-5 > 100 µM | A549 86.5 µM | MDA-MB-231 91.8 µM | MDA-MB-435 > 100 µM | SK-MEL-2 > 100 µM | CCRF-CEM 40.8 µM | SF-268 > 100 µM | Hs-578T 40.3 µM | EKVX 29.2 µM | OVCAR-8 78.7 µM | HCC 2998 72.8 µM | HCT-116 42.2 µM | UO-31 56 µM | SNB-19 40.5 µM | SNB-75 > 100 µM | K562 38 µM | MDA-N > 100 µM | NCI-H23 > 100 µM | IGROV-1 72.1 µM | NCI-H460 63.2 µM | SN12C 64.1 µM | BT-549 42.2 µM | HL-60 27.3 µM | HOP-62 64.6 µM | DU-145 > 100 µM | RXF 393 > 100 µM | TK-10 > 100 µM | OVCAR-4 42.3 µM | SK-OV-3 > 100 µM | SW-620 74 µM | SF-539 50.1 µM | NCI/ADR-RES 96.4 µM | HOP-92 75 µM | UACC-62 75 µM | MOLT-4 > 100 µM | SK-MEL-5 45 µM

CC[C@@]1(O)C(=O)OCc2c1cc1n(c2=O)Cc2c-1nc1ccccc1c2/C=N\NC(=O)C(N)CCSC (some centres undefined)
active: SF-295 < 0.01 µM | ACHN < 0.01 µM | M14 < 0.0121 µM | 786-0 < 0.01 µM | SK-MEL-28 1.03 µM | U-251 < 0.01 µM | UACC-257 0.228 µM | OVCAR-3 0.352 µM | PC-3 0.13 µM | NCI-H226 < 0.016 µM | Malme-3M 0.102 µM | A498 0.0628 µM | RPMI-8226 < 0.0282 µM | MCF7 < 0.01 µM | LOX IMVI < 0.01 µM | KM12 0.254 µM | SR < 0.01 µM | CAKI-1 < 0.01 µM | HT-29 0.266 µM | OVCAR-5 0.774 µM | A549 0.0183 µM | MDA-MB-435 0.108 µM | SK-MEL-2 0.713 µM | CCRF-CEM < 0.01 µM | SF-268 < 0.01 µM | EKVX 0.668 µM | OVCAR-8 < 0.0119 µM | HCC 2998 0.336 µM | HCT-116 0.0253 µM | UO-31 < 0.0104 µM | SNB-19 < 0.01 µM | SNB-75 < 0.01 µM | K562 0.0109 µM | MDA-N 0.224 µM | NCI-H23 < 0.01 µM | IGROV-1 0.239 µM | NCI-H460 < 0.01 µM | T47D < 0.01 µM | SN12C < 0.01 µM | BT-549 0.102 µM | HL-60 < 0.01 µM | HOP-62 < 0.01 µM | DU-145 0.0175 µM | RXF 393 < 0.0146 µM | NCI-H522 < 0.032 µM | OVCAR-4 0.299 µM | SK-OV-3 < 0.0127 µM | SW-620 0.0883 µM | SF-539 < 0.01 µM | NCI/ADR-RES 0.0395 µM | HOP-92 0.0863 µM | UACC-62 < 0.01 µM | MOLT-4 < 0.01 µM | SK-MEL-5 0.0149 µM
0.39 µM: HCT-15
inactive: COLO 205 1.24 µM | MDA-MB-231 1.24 µM | TK-10 6.4 µM
